Reference: patent US12674139B2, “Serum-free medium not containing albumin and suited for culturing human hematopoietic stem cells, and albumin-free culturing method” (The University of Tokyo, priority 2019, dated 2026)
Non-standard residues stand in square brackets, D forms with d. No end group written: not given here. pY = N[C@@H](Cc1ccc(OP(=O)(O)O)cc1)C(=O)O

Assays:
[1] = tested on: human CD34+ cells; assay: Colony assay in MethoCult H4415 medium with Giemsa staining; format: cell-based; conditions: cells after 7 days culture; 20 μM PI3Ka + 0.1 μM butyzamide versus PI3Ka + TPO
Text: Subsequently, whether or not SCF and TPO can be replaced with PI3Ka and a TPO receptor agonist in the absence of albumin and in the presence of PVA was examined. In the following example, butyzamide was used as a TPO receptor agonist. Purchased human bone marrow CD34+ cells (distributor name, Lonza; product number 2C-101) or CD34+ cells isolated from given fresh umbilical cord blood using microbeads as described above were used in the culture experiment. […] Two weeks later, colonies were picked up, cytospin specimens were prepared, Giemsa staining was performed, and then the types of colonies were determined under a microscope. The number of GEmM colonies per 50 CD34+ cells was counted, and the percentage increase in the number of colonies compared with before culture was obtained.
Further, 100 CD34+ cells obtained in the culture at […] after the start of culture were seeded each on a MethoCult™ H4415 medium, and a colony assay was performed. […] Then, after Giemsa staining was performed for the specimens, the types of colonies were determined under a microscope.

[2] = tested on: Mpl32D cells; assay: Culture with TPO receptor agonists as TPO replacements, with albumin or PVA; format: cell-based, human; conditions: 0.1 μM butyzamide, 3 μg/mL eltrombopag, 3 μM avatrombopag
Method: Subsequently, whether or not TPO can be replaced with a TPO receptor agonist in culture of human hematopoietic stem cells was examined. Butyzamide, eltrombopag, and avatrombopag are known as TPO receptor agonists. Human hematopoietic stem cells were cultured in the presence of 0.1% recombinant human serum albumin (Albumin Biosciences) or in the presence of PVA in the above-mentioned culture medium having a composition from which TPO was removed and to which 0.1 μM butyzamide, 3 μg/mL eltrombopag, or 3 μM avatrombopag was added. In this experiment, Mpl32D cells were used as human hematopoietic stem cells.

[3] = tested on: human CD34+ cells; assay: Culture of human bone marrow or umbilical cord blood CD34+ cells in PVA medium, proliferation rate by cell count and flow cytometry; conditions: for ratio of number of cells at day 7 relative to first day of culture: TPO replaced with TPO receptor agonist; for proliferation rate of total cells and CD34+ cells relative to start of culture: neither SCF nor TPO, 20 μM PI3Ka, 0.1 μM TPOago or both
Text: The cells were dispensed to a 24-well plate at 0.2 to 1.0×10^5 cells per well, TPO was removed from a culture medium for human hematopoietic stem cells and replaced with any of the above-mentioned TPO receptor agonists (hereinafter, may be referred to as “TPOago”) to perform the experiment. The ratio of the number of cells at day 7 of culture relative to the first day of culture was obtained.
Subsequently, whether or not SCF and TPO can be replaced with PI3Ka and a TPO receptor agonist in the absence of albumin and in the presence of PVA was examined. In the following example, butyzamide was used as a TPO receptor agonist. […] Seven days later, the number of total cells was obtained, and the number of CD34+ cells was obtained by flow cytometry. Then, the proliferation rate compared with the start of culture was obtained.
Further, subsequently, a culture experiment of human hematopoietic stem cells was performed in a culture medium comprising neither SCF nor TPO to which 20 μM PI3Ka or 0.1 μM TPOago or both were added.
Further, subsequently, which cell population easily proliferated in a medium in which SCF and TPO were replaced with PI3Ka and TPOago was examined. CD34^+ cells isolated from given fresh umbilical cord blood using microbeads as described above were used in the culture experiment.
The cells were dispensed to a 24-well plate at 0.2×10^5 to 1.0×10^5 cells per well, and CD34^+ cells were cultured in the prepared media.

[4] = tested on: human hematopoietic stem cells (CD34+CD38− cells); assay: Proliferation of human hematopoietic stem cells in albumin-free serum-free PVA medium; format: cell-based; conditions: no albumin
Method: In this example, an assay was performed in which mouse hematopoietic stem cells (KSL cells) and human hematopoietic stem cells (CD34^+CD38^− cells) were allowed to proliferate in a culture medium not comprising albumin. The culture medium was a serum-free medium comprising polyvinyl alcohol (PVA) and not comprising albumin, as described in Wilkinson et al., Nature, 571:117-121, 2019.
Specifically, the culture medium used for culture of mouse hematopoietic stem cells was an F12 medium comprising 1% insulin-transferrin-selenium-ethanolamine (ITSX), 10 mM HEPES, 1% penicillin-streptomycin-glutamine, 100 ng/mL mouse thrombopoietin (mTPO), and 10 ng/mL mouse stem cell factor (mSCF). The medium comprised PVA at the final concentration of 0.1%. The culture medium used for culture of human hematopoietic stem cells was an IMDM medium comprising 1% insulin-transferrin-selenium-ethanolamine (ITSX), 25 mM HEPES, 1% penicillin-streptomycin-glutamine, 100 ng/mL human thrombopoietin (hTPO), and 10 ng/mL human stem cell factor (hSCF). The medium comprised PVA at the final concentration of 0.1%.
Unless otherwise specified, all media used in the following examples were an IMDM medium comprising 1% insulin-transferrin-selenium-ethanolamine (ITSX), 25 mM HEPES, 1% penicillin-streptomycin-glutamine, and PVA (hereinafter, also referred to as “common medium”). Therefore, hereinafter, description of the medium will be focused on components added to the common medium. For example, given that the above-mentioned medium comprises TPO and SCF in addition to the common medium, it is to be referred to as a TPO+SCF medium for the purpose of convenience. […]
Accordingly, human hematopoietic stem cells were cultured in a culture medium comprising 0.3 μM AKTa (name of distributer, Sigma-Aldrich; product number 123871) or 20 μM PI3Ka. Cells were counted after 3 days, 5 days, and 7 days of culture, and the ratios of the number of cells at each time point to the number of cells on the first day of culture, which was standardized as 1, were obtained. […]

[5] = 0.1% recombinant human serum albumin, no TPO
[6] = day 7, 20 μM PI3Ka + TPO 100 ng/mL

| Compound | GEmM colony forming ability (number of GEmM colonies per 50 CD34+ cells) [1] | proliferation (change with time in number of cells) [2, 5] | proliferation (change with time in number of cells) ([2]; PVA, no albumin) | ratio of number of cells at day 7 relative to first day of culture ([3]; PVA, no albumin) | proliferation rate of total cells and CD34+ cells compared with start of culture ([3]; day 7, 20 μM PI3Ka + 0.1 μM butyzamide versus 20 μM PI3Ka + TPO 100, PVA, no albumin, no SCF) | proliferation rate of total cells and CD34+ cells relative to start of culture ([3]; day 7, PVA, no albumin) | proliferation rate of total cells relative to before start of culture ([3]; day 14, added to 20 μM PI3Ka + 0.1 μM TPOago, SR-1 500 nM, UM171 35 nM) | ratio of number of cells to first day of culture ([4]; 3, 5, 7 days, SCF 10 ng/mL + TPO 100 ng/mL, 0.3 μM AKTa or 20 μM PI3Ka) | number of CD34+ cells, with SCF versus without SCF [4, 6] | number of total cells, with SCF versus without SCF [4, 6] |
| --- | --- | --- | --- | --- | --- | --- | --- | --- | --- | --- |
| CCCOC(c1cccc(-c2csc(NC(=O)c3cc(Cl)c(C=C(C)C(=O)O)c(Cl)c3)n2)c1OC)C(C)(C)C (centres unmarked) [butyzamide, 3-[4-[[[4-[2-methoxy-3-(1-tert-butyl-2-oxapentan-1-yl)phenyl]thiazol-2-yl]amino]carbonyl]-2,6-dichlorophenyl]-2-methylpropenoic acid] | could completely replace TPO | could support proliferation | marked proliferative effect | significantly proliferated | could completely replace TPO | increases of cells were not observed |  |  |  |  |
| O=C(Nc1nc(-c2cc(Cl)cs2)c(N2CCN(C3CCCCC3)CC2)s1)c1cnc(N2CCC(C(=O)O)CC2)c(Cl)c1 [avatrombopag] |  | could support proliferation | low effect | Death of hematopoietic stem cells occurred |  |  |  |  |  |  |
| CC(C)n1cnc2c(NCCc3ccc(O)cc3)nc(-c3csc4ccccc34)nc21 [SR-1] |  |  |  |  |  |  | killed cells |  |  |  |
| PI3Ka: peptide of amino acid sequence RQIKIWFQNRRMKWKKSDGGYMDMS in which Y is phosphorylated; Tocris product number 1983 (RQIKIWFQNRRMKWKKSDGG[pY]MDMS) |  |  |  |  |  | increases of cells were not observed |  | clearly proliferated | no significant difference | no significant difference |
